Here are results for 38 compounds from US20250122155A1, “NOVEL INDOLE DERIVATIVE, PHARMACEUTICAL COMPOSITION COMPRISING SAME, AND USE THEREOF” (MITOIMMUNE THERAPEUTICS INC., priority 2021, published 2025).

A value given as a limit tells only on which side of the number the result lay.

The assay relates to H9C2 cells. Kind of assay: Protective effect on heart cells against t-BHP (LDH release). Format: cell-based. As to conditions: H9C2, t-BHP 400 μM, 2 hours, read-out: EC50 (μM), Cell Protection Effect against t-BHP in Heart Cells. As for the experimental part:
In order to identify the protective effect with regard to heart cells, H9C2 cells were divided into 96-well plates by 1.5×10^4, and cultured for 24 hours. The respective wells were treated with compounds of the examples 3× serial diluted to final concentrations of 30, 10, 3, 1, 0.3, 0.1, 0.03 and 0.01 μM, then incubated for 15 to 20 minutes. After treating with t-BHP with a final concentration of 400 μM, incubation was performed for 2 hours. To confirm the protective effect of each compound, a Cytotoxicity LDH assay kit [Dojindo; CK12] was used to measure the degree of extracellular secretion of LDH. After 2-hour treatment of the cells with t-BHP was completed, 100 μL each of the supernatant in which the cells were placed was collected and moved to a new 96-well plate. 100 μL/well of the assay buffer included in the kit (same amount as the sample) was added, followed by wrapping with foil and reacting for 30 minutes at room temperature. Observing the change of color in the sample, 50 μL/well of stop solution was added, then an iD3 spectrometer was used to measure absorbance at 490 nm and calculate the EC50 values. The EC50 of the compounds of the examples is preferably no more than 1.0 μM, and more preferably no more than 0.3 μM.
Background: Release of lactate dehydrogenase indicates damage to the cell membrane.
With `COCCCNc1cc(COCCOC)cc2cc(-c3ccccc3)[nH]c12` [Example 47, 5-(2-methoxyethoxymethyl)-N-(3-methoxypropyl)-2-phenyl-1H-indol-7-amine], the EC50 is at most 0.3 µM.

Consider `COCCOCc1cc(NC2CCN(C(=O)Nc3cc(C(F)(F)F)cc(C(F)(F)F)c3)CC2)c2[nH]c(-c3ccccc3)cc2c1` [Example 41, N-[3,5-bis(trifluoromethyl)phenyl]-4-[[5-(2-methoxyethoxymethyl)-2-phenyl-1H-indol-7-yl]amino]piperidine-1-carboxamide], for which the EC50 was above 1 µM.

As for `CCC(C)Nc1cc(COCCOC)cc2cc(-c3ccccc3)[nH]c12` (centres unmarked) [Example 20, 5-(2(methoxyethoxymethyl)-2-phenyl)-N-sec-butyl-1H-indol-7-amine], the half-maximal effective concentration (EC50) was at most 0.3 µM.

Regarding `COCCOCCc1cc(NC2CCCC2)c2[nH]c(-c3ccccc3)cc2c1` [Example 66, N-cyclopentyl-5-(2-(2-methoxyethoxy)ethyl)-2-phenyl-1H-indol-7-amine], the EC50 is at most 0.3 µM.

With `COCCOCc1cc(NC2CCCC2)c2[nH]c(-c3ccc(Br)cc3)cc2c1` [Example 54, 2-(4-bromophenyl)-N-cyclopentyl-5-((2-methoxyethoxy)methyl)-1H-indol-7-amine], the EC50 was at most 0.3 µM.

Regarding `COCCOCc1cc(NCCC(C)C)c2[nH]c(-c3ccccc3)cc2c1` [Example 19, N-isopentyl-5-(2-methoxyethoxymethyl)-2-phenyl-1H-indol-7-amine], the EC50 was at most 0.3 µM.

Consider `COCCOCc1cc(NC2CCOCC2)c2[nH]c(-c3cccc(F)c3)cc2c1` [Example 48, 2-(3-fluorophenyl)-5-(2-methoxyethoxymethyl)-N-tetrahydropyran-4-yl-1H-indol-7-amine], for which the half-maximal effective concentration (EC50) is at most 0.3 µM.

On to `COCCOCc1cc(NC2CCOC2)c2[nH]c(-c3ccccc3)cc2c1` (centres unmarked) [Example 6, 5-(2-methoxyethoxymethyl)-2-phenyl-N-tetrahydrofuran-3-yl-1H-indol-7-amine], for which the concentration for a half-maximal effect (EC50) was at most 0.3 µM.

With `COCCOCc1cc(NC2COC2)c2[nH]c(-c3ccccc3)cc2c1` [Example 7, 5(2-methoxyethoxymethyl)-N-(oxetane-3-yl)-2-phenyl-1H-indol-7-amine], the EC50 is at most 0.3 µM.

For the compound `COCCOCCOCc1cc(NC2CCOCC2)c2[nH]c(-c3ccccc3)cc2c1` [Example 40, 5-[2-(2-methoxyethoxy)ethoxymethyl]-2-phenyl-N-tetrahydropyran-4-yl-1H-indol-7-amine], the EC50 lay within 0.3 to 1 µM.

Turning to `COCCOCc1cc(NC2CCCC2)c2[nH]c(-c3ccc(C#CC(C)(C)O)cc3)cc2c1` [Example 58, 4-(4-(7-(cyclopentylamino)-5-((2-methoxyethoxy)methyl)-1H-indol-2-yl)phenyl)-2-methylbut-3-yn-2-ol], the concentration for a half-maximal effect (EC50) was 0.3 to 1 µM.

On to `CC(C)OCCOCc1cc(NC2CCOCC2)c2[nH]c(-c3ccccc3)cc2c1` [Example 38, 5-(2-isopropoxyethoxymethyl)-2-phenyl-Ntetrahydropyran-4-yl-1H-indol-7-amine], for which the EC50 was at most 0.3 µM.

As for `COCCOCc1cc(NC2CCC(F)(F)CC2)c2[nH]c(-c3ccccc3)cc2c1` [Example 14, N-(4,4-difluorocyclohexyl)-5-(2-methoxyethoxymethyl)2-phenyl-1H-indol-7-amine], the EC50 is at most 0.3 µM.

For `COCCOCc1cc(NC2CCOCC2)c2[nH]c(-c3ccc(Br)cc3)cc2c1` [Example 55, 2-(4-bromophenyl)-5-((2-methoxyethoxy)methyl)-N-(tetrahydro-2H-pyran-4-yl)-1H-indol-7-amine], the EC50 is at most 0.3 µM.

On to `COCCOCc1cc(NC2CCC(O)CC2)c2[nH]c(-c3ccccc3)cc2c1` (single isomer, unassigned) [Example 69-2, 4-((5-((2-methoxyethoxy)methyl)-2-phenyl-1H-indol-7-yl)amino)cyclohexan-1-ol], for which the EC50 is at most 0.3 µM.

Turning to `COCCOCc1cc(NC(C)C)c2[nH]c(-c3ccccc3)cc2c1` [Example 27, N-isopropyl-5-(2-methoxyethoxymethyl)-2-phenyl-1H-indol-7-amine], the concentration giving a half-maximal response (EC50) was at most 0.3 µM.

Turning to `COCCOCc1cc(NC2CCC(O)CC2)c2[nH]c(-c3ccccc3)cc2c1` (single isomer, unassigned) [Example 69-1, 4-((5-((2-methoxyethoxy)methyl)-2-phenyl-1H-indol-7-yl)amino)cyclohexan-1-ol], the EC50 was at most 0.3 µM.

Turning to `CCCC(C)Nc1cc(COCCOC)cc2cc(-c3ccccc3)[nH]c12` (centres unmarked) [Example 22, 5-(2-methoxyethoxymethyl)-N-(1-methylbutyl)-2-phenyl-1H-indol-7-amine], the concentration giving a half-maximal response (EC50) is at most 0.3 µM.

`COCCOCc1cc(NC2CCOCC2)c2[nH]cc(-c3ccccc3)c2c1` [Example 52, 5-(2-methoxyethoxymethyl)-3-phenyl-N-tetrahydropyran-4-yl-1H-indol-7-amine]: the EC50 was at most 0.3 µM.

For the compound `COCCOCc1cc(N2CCOCC2)c2[nH]c(-c3ccccc3)cc2c1` [Example 5, 4-[5-(2-methoxyethoxymethyl)-2-phenyl-1H-indol-7-yl]morpholine], the concentration giving a half-maximal response (EC50) is above 1 µM.

In the case of `CCOC(=O)N1CCC(Nc2cc(COCCOC)cc3cc(-c4ccccc4)[nH]c23)CC1` [Example 44, Ethyl 4-[[5-(2-methoxyethoxymethyl)-2-phenyl-1H-indol-7-yl]amino]piperidine-1-carboxylate], the EC50 is at most 0.3 µM.

Regarding `COCCNc1cc(COCCOC)cc2cc(-c3ccccc3)[nH]c12` [Example 46, 5-(2-methoxyethoxymethyl)-N-(2-methoxyethyl)-2-phenyl-1H-indol-7-amine], the EC50 is at most 0.3 µM.

Regarding `CCCCNc1cc(COCCOC)cc2cc(-c3ccccc3)[nH]c12` [Example 17, N-butyl-5-(2-methoxyethoxymethyl)-2-phenyl-1H-indol-7-amine], the half-maximal effective concentration (EC50) is at most 0.3 µM.

Turning to `COCCOCCCc1cc(NC2CCOCC2)c2[nH]c(-c3ccccc3)cc2c1` [Example 65, 5-(3-(2-methoxyethoxy)propyl)-2-phenyl-N-(tetrahydro-2H-pyran-4-yl)-1H-indol-7-amine], the EC50 was at most 0.3 µM.

With `COCCOCc1cc(NCC2CCCC2)c2[nH]c(-c3ccccc3)cc2c1` [Example 12, N-(cyclopentylmethyl)-5-(2-methoxyethoxymethyl)-2-phenyl-1H-indol-7-amine], the EC50 was at most 0.3 µM.

Consider `CCOCCOCc1cc(NC2CCOCC2)c2[nH]c(-c3ccccc3)cc2c1` [Example 35, 5-(2-ethoxyethoxymethyl)-2-phenyl-N-tetrahydropyran-4-yl-1H-indol-7-amine], for which the half-maximal effective concentration (EC50) is at most 0.3 µM.

For the compound `COCCOCc1cc(N(C2CCC2)C2CCC2)c2[nH]c(-c3ccccc3)cc2c1` [Example 9, N,N-dicyclobutyl-5-(2-methoxyethoxymethyl)-2-phenyl-1H-indol-7-amine], the EC50 was at most 0.3 µM.

For `CC(C)OCCOCc1cc(NC2CCCC2)c2[nH]c(-c3ccccc3)cc2c1` [Example 37, N-cyclopentyl-5-(2-isopropoxyethoxymethyl)-2-phenyl-1H-indol-7-amine], the EC50 is at most 0.3 µM.

Regarding `COCCOCc1cc(NC2CCN(S(C)(=O)=O)CC2)c2[nH]c(-c3ccccc3)cc2c1` [Example 31, 5-(2-methoxyethoxymethyl)-N-(1-methylsulfonyl-4-piperidyl)-2-phenyl-1H-indol-7-amine], the EC50 was at most 0.3 µM.

In the case of `COCCOCc1cc(NC2CCOCC2)c2[nH]c(-c3ccc(P(C)(C)=O)cc3)cc2c1` [Example 57], the concentration giving a half-maximal response (EC50) was above 1 µM.

As to `COCCOCc1cc(NC2CCN(C(=O)OC(C)(C)C)CC2)c2[nH]c(-c3ccccc3)cc2c1` [Example 29, tert-butyl 4-[[5-(2-methoxyethoxymethyl)-2-phenyl-1H-indol-7-yl]amino]piperidine-1-carboxylate], the EC50 was at most 0.3 µM.

As to `COCCOCc1cc(NC2CCS(=O)(=O)CC2)c2[nH]c(-c3ccccc3)cc2c1` [Example 32, N-(1,1-dioxothian-4-yl)-5-(2-methoxyethoxymethyl)-2-phenyl-1H-indol-7-amine], the EC50 is at most 0.3 µM.

In the case of `COCCOCc1cc(NC2CCC2)c2[nH]c(-c3ccccc3)cc2c1` [Example 8, N-cyclobutyl-5-(2-methoxyethoxymethyl)-2-phenyl-1H-indol-7-amine], the concentration for a half-maximal effect (EC50) is at most 0.3 µM.

As to `CCC(CC)Nc1cc(COCCOC)cc2cc(-c3ccccc3)[nH]c12` [Example 23, N-(1-ethylpropyl)-5-(2-methoxyethoxymethyl)-2-phenyl-1H-indol-7-amine], the 50% effective concentration (EC50) was at most 0.3 µM.

On to `CCC(CC)CNc1cc(COCCOC)cc2cc(-c3ccccc3)[nH]c12` [Example 18, N-(2-ethylbutyl)-5-(2-methoxyethoxymethyl)-2-phenyl-1H-indol-7-amine], for which the EC50 is at most 0.3 µM.

Consider `COCCOCc1cc(NC2CCC(C)(O)CC2)c2[nH]c(-c3ccccc3)cc2c1` (single isomer, unassigned) [Example 70-1, 4-((5-((2-methoxyethoxy)methyl)-2-phenyl-1H-indol-7-yl)amino)-1-methylcyclohexane-1-ol], for which the EC50 was at most 0.3 µM.

Consider `COCCOCc1cc(NC(C)C(C)C)c2[nH]c(-c3ccccc3)cc2c1` (centres unmarked) [Example 26, N-(1,2-dimethylpropyl)-5-(2-methoxyethoxymethyl)-2-phenyl-1H-indol-7-amine], for which the concentration giving a half-maximal response (EC50) was at most 0.3 µM.

As to `COCCOCc1cc(NC2CCOCC2)c2[nH]c(-c3ccc(C#CC(C)(C)O)cc3)cc2c1` [Example 59, 4-(4-(5-((2-methoxyethoxy)methyl)-7-((tetrahydro-2H-pyran-4-yl)amino)-1H-indol-2-yl)phenyl)-2-methylbut3-yn-2-ol], the concentration for a half-maximal effect (EC50) is 0.3 to 1 µM.

For orientation: EC50 means the concentration giving half of the maximal effect.
